{"source": "patent US5929099A", "about": "“Pharmaceutical composition for inhibiting the growth of cancers” (Procter & Gamble Co., priority 1996, dated 1999)", "key": {"[1]": {"system": "HIV-1 in chronic infected U1 cells (HIV monocytes)", "test": "HIV chronic study, monocyte HIV replication", "assay_type": "cell-based", "conditions": "Human immunodeficiency virus 1, Monocyte; 1 μg/ml; positive control; read-out: suppressed HIV monocytes replication", "protocol": "(§1) These cells were treated with test samples."}, "[2]": {"system": "HIV-1 in chronic infected ACH-2 cells (T-cell)", "test": "HIV chronic study, T-cell HIV replication", "assay_type": "cell-based", "conditions": "Human immunodeficiency virus 1, ACH-2; positive control AZT (1 μg/ml); read-out: suppressed T-cell HIV replication", "protocol": "as §1"}, "HIV": {"system": "HIV", "test": "In vitro acute model for HIV, viral replication", "assay_type": "cell-based", "conditions": "Human immunodeficiency virus 1, 1 μg/ml, read-out: inhibited viral replication", "protocol": "In an in vitro acute model for HIV carbendazim inhibited viral replication by 100% at 4 μg/ml and AZT inhibited viral replication by 98% at 1 μg/ml. Thiabendazole inhibited viral replication by 98% at 60 μg/ml."}, "HIV-1": {"system": "HIV-1", "test": "HIV chronic study, therapeutic index", "method": "Chronic HIV-1 infected cells U1 were derived from an acute HIV-1 infection of the promonocytic cell line, U937. The chronic HIV-1 infected cells, ACH-2 were derived from an acute HIV-1 infection of the T cell line, A3.01.\nThese cells were cultured in medium and the phorbol ester, PMA. […] Cell viability was measured when these cell lines were treated with the test compounds.\nIn addition, the number of institute positive HIV mRNA expressing cells per microscopic field is measured. Comparisons can be made from these numbers since the same number of cells were adhered to the glass slides for each drug concentration (10×10^6 cells/ml)."}, "[3]": {"system": "colon, breast and lung human tumor cells", "test": "Colon, breast and lung tumor cells test, overall comparison", "assay_type": "cell-based", "conditions": "positive control, in all cases", "protocol": "(§2) The following cell culture tests were performed to test the toxicity of the benzimidazole compounds on colon, breast and lung human tumor cells. The viability of the cells were tested by looking at MTT (3-[4,5-dimethylthiazol-2-yl]-2,5-diphenyltetrazolium bromide) reduction. MTT assay is a well known measure of cell viability.\n(§3) The colon tumor cells (HT29 from American Type Culture Collection (ATCC)) and the breast cells (MX1 from cell lines from ATCC) were cultured in Eagle's Miminal Essential Medium with 10% fetal bovine serum. The lung tumor cells (A549 from ATCC cell lines) were cultured in Ham's F12 medium with 10% fetal bovine serum.\nThe tumor cells were passaged and seeded into culture flasks at the desired cell densities. The culture medium was decanted and the cell sheets were washed twice with phosphate buffered saline (PBS). The cells were trypsinized and triturated prior to seeding the flasks. […]\nThe cells were subcultured when the flasks were subconfluent. […] The concentration of cells in the suspension was determined, and an appropriate dilution was made to obtain a density of 5000 cells/ml. […]\n(§4) The absorbance at 550 mn (OD550) of each well was measured with a Molecular Devices (Menlo Park, Calif.) VMax plate reader.\nThe mean OD550 of the solvent control wells and that of each test article dilution, and that of each of the blank wells and the positive control were calculated. […]"}, "[4]": {"test": "Toxicity to normal healthy cells (Table 2)", "assay_type": "cell-based", "conditions": "read-out: EC-50 (the source's name)", "excerpt": "The EC50 is the concentration at which one half of the cells are killed.\nIn normal healthy cells, the following results were obtained."}, "MX1 breast tumor cells": {"system": "MX1 breast tumor cells", "test": "MTT cell viability, breast tumor cells (Table 1)", "assay_type": "cell-based", "conditions": "Homo sapiens, 120 h, approx. 5 days, read-out: EC-50 Result", "protocol": "as §2, §3\n(§5) The tumor cells were passaged and seeded into culture flasks at the desired cell densities. The culture medium was decanted and the cell sheets were washed twice with phosphate buffered saline (PBS). The cells were trypsinized and triturated prior to seeding the flasks. Unless otherwise indicated the cultures were incubated at 37±1° C. in a humidified atmosphere of 5±1% carbon dioxide in air. The cultures were incubated until they were 50-80% confluent.\n(§6) The cells were subcultured when the flasks were subconfluent. The medium was aspirated from the flasks and the cell sheets rinsed twice with PBS. Next, the Trypsin Solution was added to each flask to cover the cell sheet. The Trypsin Solution was removed after 30-60 seconds and the flasks were incubated at room temperature for two to six minutes. When 90% of the cells became dislodged, growth medium was added. The cells were removed by trituration and transferred to a sterile centrifuge tube. The concentration of cells in the suspension was determined, and an appropriate dilution was made to obtain a density of 5000 cells/ml. The cells were subcultured into the designated wells of the 96-well bioassay plates (200 microliter cell suspension per well). PBS was added to all the remaining wells to maintain humidity. The plates were then incubated overnight before test article treatment.\n(§7) Each dose of test article was tested by treating quadruplicate wells of cultures with 100 microliter of each dilution. Those wells designated as solvent controls received an additional 100 microliter of methanol control; negative controls wells received an additional 100 microliters of treatment medium. PBS was added to the remaining wells not treated with test article or medium. The plates were then incubated for approximately 5 days.\n(§8) At the end of the 5 day incubation, each dose group was examined microscopically to assess toxicity. A 0.5 mg/ml dilution of MTT was made in treatment medium, and the dilution was filtered through a 0.45 micrometer filter to remove undissolved crystals. The medium was decanted from the wells of the bioassy plates. Immediately thereafter, […] of the filtered MTT solution was added to all test wells except for the two untreated blank test wells. The two blank wells received 200 microliters of treatment medium. The plates were returned to the incubator for about 3 hours. After incubation, the MTT containing medium was decanted. […] was added to each well and the plates were shaken at room temperature for about 2 hours.\nas §4\n(§9) The mean OD550 of the solvent control wells and that of each test article dilution, and that of each of the blank wells and the positive control were calculated. The mean OD550 of the blank wells was subtracted from the mean of the solvent control wells, and test article wells, respectively to give the corresponding mean OD550. [formula]\n(§10) Dose response curves were prepared as semi-log plots with % of control on the ordinate (linear) and the test article concentration on the abscissa (logarithmic). The EC50 was interpolated from the plots for each test article.\n(§11) For the test articles administered in methanol, separate responses were prepared to correct for the methanol data. […]"}, "HT29 colon tumor cells": {"system": "HT29 colon tumor cells", "test": "MTT cell viability, colon tumor cells (Table 1)", "assay_type": "cell-based", "conditions": "Homo sapiens, HT-29, 120 h, approx. 5 days, read-out: EC-50 Result", "protocol": "as §2, §3, §5, §6, §7, §8, §4, §9, §10, §11"}, "A549 lung tumor cells": {"system": "A549 lung tumor cells", "test": "MTT cell viability, lung tumor cells (Table 1)", "assay_type": "cell-based", "conditions": "Homo sapiens, A549, 120 h, approx. 5 days, read-out: EC-50 Result", "protocol": "as §2, §3, §5, §6, §7, §8, §4, §9, §10, §11"}, "melanoma": {"system": "melanoma", "test": "In vivo mouse model for melanoma, combination with Navelbine, survival time"}}, "note": "Where two headings read alike, the source gives them in different places.", "data": [{"smiles": "Cc1cn([C@H]2C[C@H](N=[N+]=[N-])[C@@H](CO)O2)c(=O)[nH]c1=O", "note": "[AZT]", "values": [{"measurement": "inhibition at 1 µg/mL", "setting": "[1]", "result": 98, "unit": "%"}, {"measurement": "inhibition at 1 µg/mL", "setting": "[2]", "result": 60, "unit": "%"}, {"measurement": "inhibition at 1 µg/mL", "setting": "HIV", "result": 98, "unit": "%"}, {"measurement": "therapeutic index (TI), the ratio of the toxic dose of drug to efficacious dose of drug", "setting": "HIV-1", "result": "12, 500"}]}, {"smiles": "COc1cccc2c1C(=O)c1c(O)c3c(c(O)c1C2=O)C[C@@](O)(C(=O)CO)C[C@@H]3O[C@H]1C[C@H](N)[C@H](O)[C@H](C)O1", "note": "[Adriamycin]", "values": [{"measurement": "toxicity relative to the test materials", "setting": "[3]", "result": "more toxic than any of the test materials by one or two logs"}, {"measurement": "CC50", "setting": "[4]; bronchial cells, Broncheal Cells, first value", "result": 0.015, "unit": "µg/mL"}, {"measurement": "CC50", "setting": "[4]; bronchial cells, Broncheal Cells, second value", "result": 0.002, "unit": "µg/mL"}, {"measurement": "CC50", "setting": "[4]; fibroblasts, first value", "result": 0.065, "unit": "µg/mL"}, {"measurement": "CC50", "setting": "[4]; fibroblasts, second value", "result": 0.1, "unit": "µg/mL"}, {"measurement": "CC50", "setting": "[4]; kerotinoyle cells, first value", "result": 0.0035, "unit": "µg/mL"}, {"measurement": "CC50", "setting": "[4]; kerotinoyle cells, second value", "result": 0.0093, "unit": "µg/mL"}, {"measurement": "IC50", "setting": "MX1 breast tumor cells; MX1, first column", "result": 0.02, "unit": "µg/mL"}, {"measurement": "IC50", "setting": "MX1 breast tumor cells; MX1, second column", "result": 0.001, "unit": "µg/mL"}, {"measurement": "IC50", "setting": "HT29 colon tumor cells; HT29, first column", "result": 0.03, "unit": "µg/mL"}, {"measurement": "IC50", "setting": "HT29 colon tumor cells; HT29, second column", "result": 0.006, "unit": "µg/mL"}, {"measurement": "IC50", "setting": "A549 lung tumor cells; A549, first column", "result": 0.03, "unit": "µg/mL"}, {"measurement": "IC50", "setting": "A549 lung tumor cells; A549, second column", "result": 0.009, "unit": "µg/mL"}]}, {"smiles": "CCC1=C[C@@H]2CN(C1)Cc1c([nH]c3ccccc13)[C@@](C(=O)OC)(c1cc3c(cc1OC)N(C)[C@H]1[C@@](O)(C(=O)OC)[C@H](OC(C)=O)[C@]4(CC)C=CCN5CC[C@]31[C@@H]54)C2", "note": "[Navelbine]", "values": [{"measurement": "% increase in survival time vs. untreated mice", "setting": "melanoma; Navelbine alone 0.5 mg/kg", "result": 190, "unit": "%"}, {"measurement": "% increase in survival time vs. untreated mice", "setting": "melanoma; Navelbine alone 1.0 mg/kg", "result": 245, "unit": "%"}, {"measurement": "% increase in survival time vs. untreated mice", "setting": "melanoma; Navelbine alone 2.0 mg/kg", "result": 265, "unit": "%"}]}]}
